Reference: ChEMBL document CHEMBL3526130, “An evaluation of using rat-derived single-dose neuropharmacokinetic parameters to project accurately large animal unbound brain drug concentrations” (Drug Metab Dispos, 2012)

Key:
Type in all cases: ADME, organism-based
[1] = AUC(0 to 7 hrs) in Sprague-Dawley rat plasma at 0.2 mg/kg, sc by LC-MS/MS analysis; parameters: time < 7 hr, dose 0.2 mg/kg, route subcutaneous
[2] = AUC(0 to infinity) in Sprague-Dawley rat plasma at 0.2 mg/kg, sc by LC-MS/MS analysis; parameters: dose 0.2 mg/kg, route subcutaneous, time infinity
[3] = AUC(0 to 7 hrs) in Sprague-Dawley rat cerebrospinal fluid at 0.2 mg/kg, sc by LC-MS/MS analysis; parameters: time < 7 hr, dose 0.2 mg/kg, route subcutaneous
[4] = AUC(0 to infinity) in Sprague-Dawley rat cerebrospinal fluid at 0.2 mg/kg, sc by LC-MS/MS analysis; parameters: time infinity, dose 0.2 mg/kg, route subcutaneous
[5] = AUC(0 to 7 hrs) in Sprague-Dawley rat brain at 0.2 mg/kg, sc by LC-MS/MS analysis; parameters: time < 7 hr, dose 0.2 mg/kg, route subcutaneous
[6] = AUC(0 to infinity) in Sprague-Dawley rat brain at 0.2 mg/kg, sc by LC-MS/MS analysis; parameters: time infinity, dose 0.2 mg/kg, route subcutaneous

Q: What does the source list for CCCC(C)C1(CC)C(=O)NC(=S)NC1=O (stereo unspecified) [THIOPENTAL]?
A: AUC(0-t) at 7 h [1]: 0.216 µg·h/mL; AUC(0-inf) [2]: 0.244 µg·h/mL; AUC(0-t) at 7 h [3]: 0.0164 µg·h/mL; AUC(0-inf) [4]: 0.0166 µg·h/mL; AUC(0-t) at 7 h [5]: 0.209 µg·h/mL; AUC(0-inf) [6]: 0.215 µg·h/mL
